The record followed here is ChEMBL document CHEMBL1201862, “PubChem BioAssay data set” (2004).

Molecules are shown by their SMILES.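 Results reflect a 48-hour exposure of cells in 96-well plates to compound at five concentrations. GI50 = concentration required for 50% inhibition of growth.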 Calls of active or inactive are those of the source. Rule as the data show it: active = GI50 up to about 1.1 µM and inactive = higher.

Test systems include A549; CAKI-1; MOLT-4; NCI-H226; NCI-H23; OVCAR-4; OVCAR-8; RXF 393; SK-MEL-28; SK-MEL-2; SN12C; SW-620; UACC-257; UACC-62; HCT-15.
Assay in all cases: NCI-60 cell line screen, 48 h

With `Fc1ccccc1C1CC(c2ccc3ccccc3c2)=Nc2ccccc2S1` (centres undefined), the GI50 in the assay on A549, with CAKI-1, with MOLT-4, in the assay with NCI-H226, with NCI-H23 and in the assay with OVCAR-4 was > 100 µM (inactive) throughout. In addition, the GI50 in the assay with OVCAR-8, in the assay on RXF 393, in the assay with SK-MEL-28, in the assay with SK-MEL-2, with SN12C and in the assay with SW-620 was > 100 µM (inactive) each time. Moreover, the GI50 with UACC-257 and in the assay with UACC-62 was > 100 µM (inactive) throughout.

On to `Cc1cccc(NC(=O)CC2C(=O)Nc3ccccc3S2(=O)=O)c1C` (centres undefined), for which the GI50 is 31.2 µM (inactive) in the assay on A549; 66.8 µM (inactive) in the assay with CAKI-1; 40.6 µM in the assay with HCT-15; 47.9 µM (inactive) with MOLT-4; 25 µM (inactive) with NCI-H226; 16.7 µM (inactive) in the assay with NCI-H23. Further, the GI50 is 16.5 µM (inactive) in the assay with OVCAR-4; 20.2 µM (inactive) in the assay on OVCAR-8; 17.9 µM (inactive) in the assay on RXF 393; 77.6 µM (inactive) with SK-MEL-28; 23.4 µM (inactive) with SK-MEL-2; 97.5 µM (inactive) in the assay on SN12C. The GI50 is 28.2 µM (inactive) with SW-620, 26.9 µM (inactive) in the assay with UACC-257 and 18.6 µM (inactive) with UACC-62.

As to `COc1cc2c(cc1OC)C(Cc1cc(Br)c(OC)c(OC)c1)=[N+](C)CC2`, the GI50 in the assay on A549 was 34.8 µM (inactive); in the assay on CAKI-1, > 100 µM (inactive); in the assay on HCT-15 it was > 100 µM; in the assay on NCI-H226, 31.6 µM (inactive); with NCI-H23, 14.6 µM (inactive); with OVCAR-4 it was 19.2 µM (inactive). Moreover, the GI50 was 27 µM (inactive) with OVCAR-8; 69.7 µM (inactive) in the assay with RXF 393; > 100 µM (inactive) in the assay with SK-MEL-28; > 100 µM (inactive) in the assay on SK-MEL-2; 87.3 µM (inactive) with SN12C; 67.3 µM (inactive) in the assay with SW-620. In addition, the values for the GI50 with UACC-257 and with UACC-62 were 11.1 µM (inactive) and > 100 µM (inactive), respectively.

With `O=c1[nH]c(-c2ccccc2)nc2ccc(Cl)cc12`, the GI50 was > 100 µM (inactive) with A549; 20.9 µM (inactive) in the assay on CAKI-1; 35.7 µM in the assay with HCT-15; 34 µM (inactive) in the assay with MOLT-4; > 100 µM (inactive) in the assay with NCI-H226; 77.4 µM (inactive) in the assay with NCI-H23. Further, the GI50 in the assay with OVCAR-4 is 30.3 µM (inactive); in the assay with OVCAR-8, 43.8 µM (inactive); with RXF 393, 20 µM (inactive); in the assay on SK-MEL-28, 23.4 µM (inactive); with SK-MEL-2, 47 µM (inactive); in the assay on SN12C it was 41 µM (inactive). The GI50 was 29.4 µM (inactive) with SW-620 and 42.4 µM (inactive) with UACC-257.

For the molecule `CC(O)C(C(=O)O)N(CC1(O)OCC(O)C(O)C1O)N=O` (centres undefined), the GI50 in the assay with A549, in the assay on MOLT-4, in the assay on NCI-H23, with OVCAR-8, in the assay on RXF 393 and in the assay with SK-MEL-28 was > 100 µM (inactive) each time. Further, the GI50 with SK-MEL-2, in the assay with SW-620, in the assay with UACC-257 and in the assay with UACC-62 was > 100 µM (inactive) throughout.

On to `CCCCCCCCCCCCCCCC(=O)OCC1OC(n2cc(F)c(=O)[nH]c2=O)C(N)C(O)C1O` (centres undefined), for which the GI50 is 19 µM (inactive) in the assay with A549; 21 µM (inactive) with CAKI-1; 22.8 µM (inactive) in the assay with MOLT-4; 17.5 µM (inactive) in the assay on NCI-H226; 19.7 µM (inactive) with NCI-H23; 15.8 µM (inactive) with OVCAR-4. Besides, the GI50 with OVCAR-8 is 20.5 µM (inactive); with SK-MEL-28, 16.9 µM (inactive); with SN12C, 18.2 µM (inactive); with SW-620, 16.7 µM (inactive); in the assay on UACC-257, 20.2 µM (inactive); in the assay on UACC-62, 16.2 µM (inactive).

On to `COc1cc(-c2nccc3cc(OC)c(OC)cc23)ccc1O`, for which the GI50 is > 100 µM (inactive) with A549; 21.3 µM (inactive) in the assay on CAKI-1; 27.9 µM in the assay on HCT-15; 29.2 µM (inactive) in the assay with MOLT-4; > 100 µM (inactive) with NCI-H226; 32.4 µM (inactive) with NCI-H23. Moreover, the GI50 in the assay on OVCAR-4 was 68.4 µM (inactive); with OVCAR-8, 44.1 µM (inactive); with SK-MEL-28 it was > 100 µM (inactive); in the assay with SK-MEL-2, > 100 µM (inactive); in the assay with SN12C, 48.2 µM (inactive); in the assay on SW-620, 55.2 µM (inactive). Besides, the GI50 is 69.2 µM (inactive) with UACC-257 and 30 µM (inactive) in the assay with UACC-62.

With `Brc1ccccc1C1SCc2nc3ccccc3n21` (centres undefined), the GI50 is 26.1 µM (inactive) with A549; 20.7 µM (inactive) in the assay on CAKI-1; 9.84 µM in the assay on HCT-15; 18.5 µM (inactive) in the assay on MOLT-4; 17.1 µM (inactive) in the assay on NCI-H226; 11.7 µM (inactive) in the assay on NCI-H23. Besides, the GI50 in the assay on OVCAR-4 was 23.8 µM (inactive); in the assay with OVCAR-8, 23.6 µM (inactive); with RXF 393 it was 9.33 µM (inactive); in the assay with SK-MEL-28 it was > 10 µM (inactive); in the assay with SK-MEL-2, 15.5 µM (inactive); with SN12C, 12.8 µM (inactive). Also, the GI50 was 32.3 µM (inactive) with SW-620 and > 10 µM (inactive) in the assay on UACC-62.

For `C#CCNC(=O)N(CC#C)N=O`, the GI50 in the assay with CAKI-1 was > 100 µM (inactive); with HCT-15 it was > 100 µM; in the assay on MOLT-4, 31 µM (inactive); in the assay with NCI-H226, > 100 µM (inactive); in the assay with NCI-H23, > 100 µM (inactive); in the assay on OVCAR-4 it was > 100 µM (inactive). Moreover, the GI50 in the assay on OVCAR-8, in the assay with RXF 393, with SK-MEL-28, in the assay on SK-MEL-2, with SN12C and with SW-620 was > 100 µM (inactive) in each case. Besides, the GI50 in the assay on UACC-257 and with UACC-62 was > 100 µM (inactive) in each case.

Consider `Cn1c(=O)c(/N=N/c2c(=O)n(C)c(=O)n3c2[nH]c2ccccc23)c2[nH]c3ccccc3n2c1=O`, for which the GI50 is 92.7 µM (inactive) with A549; > 100 µM (inactive) with CAKI-1; 48.5 µM in the assay with HCT-15; 36.3 µM (inactive) in the assay with NCI-H226; 71.1 µM (inactive) in the assay on NCI-H23; > 100 µM (inactive) in the assay with OVCAR-4. Besides, the GI50 in the assay with OVCAR-8 is 57.9 µM (inactive); in the assay on RXF 393, > 100 µM (inactive); in the assay with SK-MEL-28, > 100 µM (inactive); in the assay on SK-MEL-2, > 100 µM (inactive); in the assay on SW-620 it was > 100 µM (inactive); in the assay with UACC-257, 54.2 µM (inactive). Besides, the GI50 in the assay on UACC-62 is > 100 µM (inactive).

`O=C(NNC(=O)/C(=C/c1cccc([N+](=O)[O-])c1)NC(=O)c1ccccc1)Nc1ccc(Cl)cc1`: the GI50 in the assay with A549 was 14.3 µM (inactive); in the assay with CAKI-1 it was 19.9 µM (inactive); in the assay with HCT-15 it was 12.2 µM; in the assay with MOLT-4, 3.94 µM (inactive); with NCI-H226 it was 15.1 µM (inactive); in the assay on NCI-H23 it was 15.1 µM (inactive). Moreover, the GI50 in the assay on OVCAR-4 was 11.2 µM (inactive); in the assay with OVCAR-8 it was 14.2 µM (inactive); with RXF 393 it was 11 µM (inactive); in the assay with SK-MEL-28, 15.5 µM (inactive); with SK-MEL-2, 12.2 µM (inactive); in the assay with SN12C it was 14.5 µM (inactive). Moreover, the GI50 with SW-620 is 15.1 µM (inactive); with UACC-257, 17.6 µM (inactive); in the assay with UACC-62 it was 14.5 µM (inactive).

In the case of `COCCCNC(=O)C1C(=O)N(CCCOC)C(=O)/C1=N\N` (centres undefined), the GI50 with A549 was > 100 µM (inactive); in the assay with HCT-15, > 100 µM; in the assay with MOLT-4, > 100 µM (inactive); in the assay on NCI-H23, > 100 µM (inactive); in the assay with OVCAR-4, > 100 µM (inactive); in the assay with OVCAR-8 it was > 100 µM (inactive). Further, the GI50 with RXF 393, in the assay with SK-MEL-28, with SK-MEL-2, in the assay on SN12C, with SW-620 and in the assay with UACC-257 was > 100 µM (inactive) each time. In addition, in the assay on UACC-62, the GI50 was > 100 µM (inactive).

Take `COC(=O)c1c/c(=N\NC(=O)CC(=O)Nc2ccccc2Cl)c2ccccc2o1`: the GI50 in the assay on A549 was > 100 µM (inactive); in the assay with CAKI-1 it was > 100 µM (inactive); with HCT-15, > 100 µM; with MOLT-4, > 100 µM (inactive); with NCI-H226 it was 27.7 µM (inactive); in the assay with NCI-H23, > 100 µM (inactive). For the same molecule, the GI50 with OVCAR-4, in the assay on OVCAR-8, with SK-MEL-28, in the assay on SK-MEL-2, in the assay with SN12C and in the assay with SW-620 was > 100 µM (inactive) each time. The GI50 in the assay on UACC-257 and in the assay on UACC-62 was > 100 µM (inactive) in each case.

Take `[O-][Cl+3]([O-])([O-])[O-].c1ccc(C[P+]2(c3ccccc3)CCCCC2)cc1`: the GI50 with A549 was > 100 µM (inactive); in the assay with HCT-15, > 100 µM; in the assay with MOLT-4, > 100 µM (inactive); in the assay on NCI-H226, > 100 µM (inactive); in the assay with NCI-H23, > 100 µM (inactive); in the assay on OVCAR-4, > 100 µM (inactive). Also, the GI50 in the assay on OVCAR-8 is > 100 µM (inactive); with RXF 393, > 100 µM (inactive); in the assay on SK-MEL-28 it was > 100 µM (inactive); with SK-MEL-2 it was 95.5 µM (inactive); with SN12C it was > 100 µM (inactive); with SW-620, > 100 µM (inactive). The figures for the GI50 with UACC-257 and in the assay on UACC-62 were 34.4 µM (inactive) and 61.7 µM (inactive), respectively.

For `Cc1ccc(S(=O)(=O)NC(=O)NCCc2ccccc2)cc1`, the GI50 is > 100 µM (inactive) with A549; > 100 µM (inactive) in the assay with CAKI-1; > 100 µM (inactive) with MOLT-4; > 100 µM (inactive) in the assay on NCI-H226; 76.7 µM (inactive) in the assay with NCI-H23; > 100 µM (inactive) with OVCAR-4. Besides, the GI50 in the assay on OVCAR-8 was > 100 µM (inactive); in the assay on RXF 393 it was 77.6 µM (inactive); with SK-MEL-28, > 100 µM (inactive); in the assay on SK-MEL-2 it was > 100 µM (inactive); in the assay with SN12C it was > 100 µM (inactive); in the assay on SW-620, > 100 µM (inactive). The GI50 is 25.9 µM (inactive) in the assay with UACC-257 and > 100 µM (inactive) in the assay on UACC-62.
